In patent US12110283B2, “Carbonic anhydrase targeting agents and methods of using same” (VisEn Medical, Inc., priority 2011, dated 2024):

How the values were obtained:
CA II = CA II (Homo sapiens, UniProt P00918); assay: Ki by stopped flow CO2 hydration assay, CA II; assay type: biochemical; details: rate of CO2 hydration, stopped flow method
Method: (§1) In this experiment, Ki values were determined by measuring the rate of CO2 hydration of the CA spectrophotometrically by a stopped flow method in the presence of varying concentrations of the CA agents.

CA XII = CA XII (Homo sapiens, UniProt O43570); assay: Ki by stopped flow CO2 hydration assay, CA XII; assay type: biochemical; details: rate of CO2 hydration, stopped flow method
Method: as §1

CA IX [1] = molecular target: T1, CA IX (Homo sapiens, UniProt Q16790); assay: Ki by stopped flow CO2 hydration assay, CA IX; assay type: biochemical; details: for Ki: rate of CO2 hydration, stopped flow method
T1 construct: confirming upregulation and expression of CA IX in these cells; endogenous in cells; host or cells: HeLa cells, hypoxic (1% O2) or normoxic
Method: as §1

CA XIV = CA XIV (Homo sapiens, UniProt Q9ULX7); assay: Ki by stopped flow CO2 hydration assay, CA XIV; assay type: biochemical; details: rate of CO2 hydration, stopped flow method
Method: as §1

CA IX [2] = molecular target: T1, CA IX; assay: Carbonic anhydrase dependent binding of CA agents to HeLa cells (fluorescence microscopy, flow cytometry); assay type: cell-based; details: for binding to hypoxic HeLa cells, flow cytometry (FIG. 3) / binding to hypoxic and normoxic HeLa cells, fluorescence microscopy (FIG. 2): HeLa cells 24 h in air or 1% O2, agents 1 μM, 30 min; for binding to hypoxic HeLa cells after excess acetazolamide, fluorescence microscopy (FIG. 2) / signal on hypoxic HeLa cells with acetazolamide, flow cytometry (FIG. 3): acetazolamide 100 μM for 2 hour before the agent
Method: Cell binding assays using HeLa cells cultured under […] were performed. Hela cells (28,000 cells/cm^2) were cultured in 6 well culture plates for 24 h under normoxic (air) or hypoxic (1% O2) conditions. Incubation with a fluorescent anti CA IX Ab (R&D systems) was performed in one well as a positive control followed by incubation for 1 h at 37° C. Carbonic anhydrase agents A5 and A3 (1 μM) or nonbinding control agent D3 were added to individual wells followed by incubation for 30 min. Cells were rinsed three times with PBS then scraped with 2 mL, transferred to 5 mL tubes and then spun for 10 min at 1000 rpm to discard the PBS. The cells were then re-suspend the cells in 400 μL PBS and analyzed by fluorescence microscopy and flow cytometry. For fluorescence microscopy, nuclei were co-stained with DAPI. For the competition study, cells were incubated with acetazolamide (Az) (100 μM) for 2 hour before incubation with agents.

HeLa tumors = assay: Imaging of tumors in vivo using CA agents (planar reflectance and FMT); details: NU/NU mice, bilateral HeLa tumors, 2 nmoles i.v., 24 hrs post-injection
Method: In this experiment, NU/NU mice 6-8 weeks old (Charles River Laboratory, Wilmington, MA) were injected subcutaneously (s.c.) with about 2×10^6 HeLa cells bilaterally in each mammary fat pad. When tumors reached an approximate size of 3×3 mm, mice were injected intravenously (i.v.) with 2 nmoles of carbonic anhydrase agent C5 or nonbinding control agent D3 (5 mice/probe+2 mice/no probe as control) in 100 μL volume via tail vein. Imaging was conducted at 24 hrs post-injection using a Fluorescence Molecular Tomography system (VisEn Medical, Bedford, MA) that is commercially available.

[3] = Biodistribution of i.v. administered compound in HeLa tumor bearing mice; assay type: in vivo; details: 2 nmoles i.v., 24 hr, excised tissues, reflectance mode
Method: Female NU/NU mice 6-8 weeks old (Charles River Laboratory, Wilmington, MA) were injected subcutaneously (s.c.) with HeLa cells (5×10^6) in the first mammary fat pads. Once tumors reached the desired volume (measured with calipers using the formula volume mm^3=(length×width^2)/2), mice were injected i.v. with compound C5 (2 nmoles) or nonbinding control D3. Mice were sacrificed by carbon dioxide asphyxiation 24 hr later and certain tissues removed, rinsed with saline, blotted dry, and the imaged on a VisEn FMT 2500 using the reflectance mode. Regions of interest (ROIs) were drawn around each organ using the FMT Software and the mean fluorescence (reported as counts/energy) determined for each organ and normalized to the mean fluorescence in tumors taken to be 100%.

CA XIV, sequence (Q9ULX7 16-337, species assumed): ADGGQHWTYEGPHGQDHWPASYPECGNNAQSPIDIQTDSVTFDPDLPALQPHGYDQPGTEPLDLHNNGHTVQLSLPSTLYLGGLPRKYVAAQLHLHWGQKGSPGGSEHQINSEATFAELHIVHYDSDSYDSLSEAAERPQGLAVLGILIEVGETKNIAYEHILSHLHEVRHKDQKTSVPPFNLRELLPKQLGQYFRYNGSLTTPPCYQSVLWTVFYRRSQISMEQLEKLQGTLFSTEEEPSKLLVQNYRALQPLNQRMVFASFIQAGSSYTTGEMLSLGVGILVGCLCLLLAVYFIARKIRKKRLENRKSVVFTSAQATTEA
CA XII, sequence (O43570 25-354, species assumed): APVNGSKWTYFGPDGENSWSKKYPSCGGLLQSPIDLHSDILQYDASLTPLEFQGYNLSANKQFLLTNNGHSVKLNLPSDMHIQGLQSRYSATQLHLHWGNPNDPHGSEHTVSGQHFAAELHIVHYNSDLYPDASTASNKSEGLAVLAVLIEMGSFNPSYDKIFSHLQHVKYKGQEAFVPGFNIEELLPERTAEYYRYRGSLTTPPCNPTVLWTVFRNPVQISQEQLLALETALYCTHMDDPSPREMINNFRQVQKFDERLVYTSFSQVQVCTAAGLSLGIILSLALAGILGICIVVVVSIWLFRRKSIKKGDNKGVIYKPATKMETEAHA

| SMILES | Ki (CA II) [µM] | Ki (CA XII) [µM] | Ki (CA IX [1]) [µM] | Ki (CA XIV) [µM] | binding to hypoxic HeLa cells, flow cytometry (FIG. 3) (CA IX [2]) | binding to hypoxic HeLa cells after excess acetazolamide, fluorescence microscopy (FIG. 2) (CA IX [2]) | signal on hypoxic HeLa cells with acetazolamide, flow cytometry (FIG. 3) (CA IX [2]) | specific binding to carbonic anhydrases (CA IX [1]; summary in words of Table 5: CA II, CA IX, CA XII, CA XIV) | binding to hypoxic and normoxic HeLa cells, fluorescence microscopy (FIG. 2) (CA IX [2]) | tumor signal by planar reflectance and tomographic imaging (HeLa tumors) | tissue fluorescence (biodistribution), normalized to tumors (FIG. 4) [3] |
| --- | --- | --- | --- | --- | --- | --- | --- | --- | --- | --- | --- |
| CN(CCCC(=O)NCc1ccc(C(=O)Nc2nnc(S(N)(=O)=O)s2)cc1)S(=O)(=O)c1cccc2c3c(ccc12)[N+](CCCS(=O)(=O)[O-])=C(/C=C/C=C/C=C1/N(CCCS(=O)(=O)O)c2ccc4c(S(=O)(=O)O)cc(S(=O)(=O)O)cc4c2C1(C)C)C3(C)C [Compound A1, 3-(2-((1E,3E,5E)-5-(1,1-dimethyl-6,8-disulfo-3-(3-sulfopropyl)-1H-benzo[e]indol-2(3H)-ylidene)penta-1,3-dien-1-yl)-1,1-dimethyl-6-(N-methyl-N-(4-oxo-4-((4-((5-sulfamoyl-1,3,4-thiadiazol-2-yl)carbamoyl)benzyl)amino)butyl)sulfamoyl)-1H-benzo[e]indol-3-ium-3-yl)propane-1-sulfonate] | 0.288 | 0.057 | 0.0084 | 0.077 |  |  |  |  |  |  |  |
| CC1(C)C(/C=C/C(=C/C=C2/N(CCCS(=O)(=O)O)c3ccc4c(S(=O)(=O)O)cc(S(=O)(=O)O)cc4c3C2(C)C)c2ccc(C(=O)NCCCCCC(=O)NCc3ccc(C(=O)Nc4nnc(S(N)(=O)=O)s4)cc3)cn2)=[N+](CCCS(=O)(=O)[O-])c2ccc3c(S(=O)(=O)O)cc(S(=O)(=O)O)cc3c21 [Compound A3, 3-(2-((1E,3Z,5E)-5-(1,1-dimethyl-6,8-disulfo-3-(3-sulfopropyl)-1H-benzo[e]indol-2(3H)-ylidene)-3-(5-((6-oxo-6-((4-((5-sulfamoyl-1,3,4-thiadiazol-2-yl)carbamoyl)benzyl)amino)hexyl)carbamoyl)pyridin-2-yl)penta-1,3-dien-1-yl)-1,1-dimethyl-6,8-disulfo-1H-benzo[e]indol-3-ium-3-yl)propane-1-sulfonate] | 0.0098 | 0.036 | 0.0076 | 0.057 | increased binding | binding can be blocked | blocking of the signal |  | bound to CA IX receptors on the surface of the hypoxic cells but not normoxic cells |  |  |
| CC1(C)C(/C=C/C(=C/C=C2/N(CCCS(=O)(=O)O)c3ccc4c(S(=O)(=O)O)cc(S(=O)(=O)O)cc4c3C2(C)C)c2ccc(C(=O)NCc3ccc(C(=O)Nc4nnc(S(N)(=O)=O)s4)cc3)cn2)=[N+](CCCS(=O)(=O)[O-])c2ccc3c(S(=O)(=O)O)cc(S(=O)(=O)O)cc3c21 [Compound A5, 3-(2-((1E,3Z,5E)-5-(1,1-dimethyl-6,8-disulfo-3-(3-sulfopropyl)-1H-benzo[e]indol-2(3H)-ylidene)-3-(5-((4-((5-sulfamoyl-1,3,4-thiadiazol-2-yl)carbamoyl)benzyl)carbamoyl)pyridin-2-yl)penta-1,3-dien-1-yl)-1,1-dimethyl-6,8-disulfo-1H-benzo[e]indol-3-ium-3-yl)propane-1-sulfonate] | 0.271 | 0.043 | 0.0079 | 0.045 | increased binding | binding can be blocked | blocking of the signal |  | bound to CA IX receptors on the surface of the hypoxic cells but not normoxic cells |  |  |
| CCN1/C(=C/C=C(/C=C/C2=[N+](CC)c3ccc4c(S(=O)(=O)[O-])cc(S(=O)(=O)O)cc4c3C2(C)C)c2ccc(C(=O)NCc3ccc(C(=O)Nc4nnc(S(N)(=O)=O)s4)cc3)cn2)C(C)(C)c2c1ccc1c(S(=O)(=O)O)cc(S(=O)(=O)O)cc21 [Compound A6, 3-ethyl-2-((1E,3Z,5E)-5-(3-ethyl-1,1-dimethyl-6,8-disulfo-1H-benzo[e]indol-2(3H)-ylidene)-3-(5-((4-((5-sulfamoyl-1,3,4-thiadiazol-2-yl)carbamoyl)benzyl)carbamoyl)pyridin-2-yl)penta-1,3-dien-1-yl)-1,1-dimethyl-8-sulfo-1H-benzo[e]indol-3-ium-6-sulfonate] | 0.0271 | 0.04 | 0.0077 | 0.084 |  |  |  |  |  |  |  |

Now from value to compound, other results behind:

| Ki (CA II) [µM] | Ki (CA XII) [µM] | Ki (CA IX [1]) [µM] | Ki (CA XIV) [µM] | binding to hypoxic HeLa cells, flow cytometry (FIG. 3) (CA IX [2]) | binding to hypoxic HeLa cells after excess acetazolamide, fluorescence microscopy (FIG. 2) (CA IX [2]) | signal on hypoxic HeLa cells with acetazolamide, flow cytometry (FIG. 3) (CA IX [2]) | specific binding to carbonic anhydrases (CA IX [1]; summary in words of Table 5: CA II, CA IX, CA XII, CA XIV) | SMILES | binding to hypoxic and normoxic HeLa cells, fluorescence microscopy (FIG. 2) (CA IX [2]) | tumor signal by planar reflectance and tomographic imaging (HeLa tumors) | tissue fluorescence (biodistribution), normalized to tumors (FIG. 4) [3] |
| --- | --- | --- | --- | --- | --- | --- | --- | --- | --- | --- | --- |
| 0.502 | 0.04 | 0.0099 | 0.069 |  |  |  |  | CCN1/C(=C/C=C(/C=C/C2=[N+](CC)c3ccc4c(S(=O)(=O)[O-])cc(S(=O)(=O)O)cc4c3C2(C)C)c2ccc(C(=O)NCc3ccc(S(N)(=O)=O)cc3)cn2)C(C)(C)c2c1ccc1c(S(=O)(=O)O)cc(S(=O)(=O)O)cc21 [Compound B6, 3-ethyl-2-((1E,3Z,5E)-5-(3-ethyl-1,1-dimethyl-6,8-disulfo-1H-benzo[e]indol-2(3H)-ylidene)-3-(5-((4-sulfamoylbenzyl)carbamoyl)pyridin-2-yl)penta-1,3-dien-1-yl)-1,1-dimethyl-8-sulfo-1H-benzo[e]indol-3-ium-6-sulfonate] |  |  |  |
| > 100 | > 100 | > 100 | > 100 | not |  |  | no specific binding is detected | CC1(C)C(/C=C/C(=C/C=C2/N(CCCS(=O)(=O)O)c3ccc4c(S(=O)(=O)O)cc(S(=O)(=O)O)cc4c3C2(C)C)c2ccc(C(=O)NCCCCCC(=O)NCc3ccccc3)cn2)=[N+](CCCS(=O)(=O)[O-])c2ccc3c(S(=O)(=O)O)cc(S(=O)(=O)O)cc3c21 [Compound D3, 3-(2-((1E,3Z,5E)-3-(5-((6-(benzylamino)-6-oxohexyl)carbamoyl)pyridin-2-yl)-5-(1,1-dimethyl-6,8-disulfo-3-(3-sulfopropyl)-1H-benzo[e]indol-2(3H)-ylidene)penta-1,3-dien-1-yl)-1,1-dimethyl-6,8-disulfo-1H-benzo[e]indol-3-ium-3-yl)propane-1-sulfonate] | doesn't bind to either normoxic or hypoxic cells | little or no tumor signal | fluorescence accumulation only in the kidneys |
